Calls of active or inactive are those of the source. Unless noted, the rule behind the calls is not given here.
How the values were obtained:
Format in all cases: functional
[1] = system: Klebsiella pneumoniae; test: Antimicrobial activity against Klebsiella pneumoniae NCTC 13368 at 750 ug/ml after 24 hrs by cup plate method; conditions: NCTC 13368, 24 h, read-out: IZ
[2] = system: Aspergillus oryzae; test: Antimicrobial activity against Aspergillus oryzae MTCC 3567 at 1000 ug/ml after 72 hrs by cup plate method; conditions: MTCC 3567, 72 h, read-out: IZ
[3] = system: Escherichia coli; test: Antimicrobial activity against Escherichia coli MTCC 723 at 750 ug/ml after 24 hrs by cup plate method; conditions: MTCC 723, 24 h, read-out: IZ
[4] = system: Staphylococcus aureus; test: Antimicrobial activity against Staphylococcus aureus ATCC 29513 at 750 ug/ml after 24 hrs by cup plate method; conditions: ATCC 29513, 24 h, read-out: IZ
[5] = system: Klebsiella pneumoniae; test: Antimicrobial activity against Klebsiella pneumoniae NCTC 13368 at 500 ug/ml after 24 hrs by cup plate method; conditions: NCTC 13368, 24 h, read-out: IZ
[6] = system: Aspergillus niger; test: Antimicrobial activity against Aspergillus niger MTCC 281 at 500 ug/ml after 72 hrs by cup plate method; conditions: MTCC 281, 72 h, read-out: IZ
[7] = Antioxidant activity assessed as metal chelating activity by measuring inhibition of ferrozine-Fe2+ complex formation at 25 to 100 ug/ml
[8] = system: Aspergillus oryzae; test: Antimicrobial activity against Aspergillus oryzae MTCC 3567 at 750 ug/ml after 72 hrs by cup plate method; conditions: MTCC 3567, 72 h, read-out: IZ
[9] = system: Aspergillus niger; test: Antimicrobial activity against Aspergillus niger MTCC 281 at 1000 ug/ml after 72 hrs by cup plate method; conditions: MTCC 281, 72 h, read-out: IZ
[10] = system: Aspergillus niger; test: Antimicrobial activity against Aspergillus niger MTCC 281 at 750 ug/ml after 72 hrs by cup plate method; conditions: MTCC 281, 72 h, read-out: IZ
[11] = system: Pseudomonas aeruginosa; test: Antimicrobial activity against Pseudomonas aeruginosa MTCC 1688 at 500 ug/ml after 24 hrs by cup plate method; conditions: MTCC 1688, 24 h, read-out: IZ
[12] = system: Pseudomonas aeruginosa; test: Antimicrobial activity against Pseudomonas aeruginosa MTCC 1688 at 1000 ug/ml after 24 hrs by cup plate method; conditions: MTCC 1688, 24 h, read-out: IZ
[13] = system: Aspergillus oryzae; test: Antimicrobial activity against Aspergillus oryzae MTCC 3567 at 500 ug/ml after 72 hrs by cup plate method; conditions: MTCC 3567, 72 h, read-out: IZ
[14] = system: Aspergillus terreus; test: Antimicrobial activity against Aspergillus terreus MTCC 1782 at 500 ug/ml after 72 hrs by cup plate method; conditions: MTCC 1782, 72 h, read-out: IZ
[15] = system: Radical scavenging activity; test: Antioxidant activity assessed as DPPH radical scavenging activity at 75 ug/ml
[16] = system: Staphylococcus aureus; test: Antimicrobial activity against Staphylococcus aureus ATCC 29513 at 1000 ug/ml after 24 hrs by cup plate method; conditions: ATCC 29513, 24 h, read-out: IZ
[17] = system: Escherichia coli; test: Antimicrobial activity against Escherichia coli MTCC 723 at 1000 ug/ml after 24 hrs by cup plate method; conditions: MTCC 723, 24 h, read-out: IZ
[18] = system: Aspergillus terreus; test: Antimicrobial activity against Aspergillus terreus MTCC 1782 at 1000 ug/ml after 72 hrs by cup plate method; conditions: MTCC 1782, 72 h, read-out: IZ
[19] = system: Aspergillus terreus; test: Antimicrobial activity against Aspergillus terreus MTCC 1782 at 750 ug/ml after 72 hrs by cup plate method; conditions: MTCC 1782, 72 h, read-out: IZ
[20] = system: Aspergillus flavus; test: Antimicrobial activity against Aspergillus flavus MTCC 1973 at 750 ug/ml after 72 hrs by cup plate method; conditions: MTCC 1973, 72 h, read-out: IZ
[21] = system: Staphylococcus aureus; test: Antimicrobial activity against Staphylococcus aureus ATCC 29513 at 500 ug/ml after 24 hrs by cup plate method; conditions: ATCC 29513, 24 h, read-out: IZ
[22] = system: Pseudomonas aeruginosa; test: Antimicrobial activity against Pseudomonas aeruginosa MTCC 1688 at 750 ug/ml after 24 hrs by cup plate method; conditions: MTCC 1688, 24 h, read-out: IZ
[23] = system: Klebsiella pneumoniae; test: Antimicrobial activity against Klebsiella pneumoniae NCTC 13368 at 1000 ug/ml after 24 hrs by cup plate method; conditions: NCTC 13368, 24 h, read-out: IZ
[24] = system: Escherichia coli; test: Antimicrobial activity against Escherichia coli MTCC 723 at 500 ug/ml after 24 hrs by cup plate method; conditions: MTCC 723, 24 h, read-out: IZ
[25] = system: Aspergillus flavus; test: Antimicrobial activity against Aspergillus flavus MTCC 1973 at 500 ug/ml after 72 hrs by cup plate method; conditions: MTCC 1973, 72 h, read-out: IZ
[26] = system: Aspergillus flavus; test: Antimicrobial activity against Aspergillus flavus MTCC 1973 at 1000 ug/ml after 72 hrs by cup plate method; conditions: MTCC 1973, 72 h, read-out: IZ
[27] = system: Radical scavenging activity; test: Antioxidant activity assessed as DPPH radical scavenging activity at 50 ug/ml
[28] = Antioxidant activity assessed as ferric ion reducing activity at 25 to 75 ug/ml by FRAP assay
[29] = Antioxidant activity assessed as ferric ion reducing activity at 25 to 100 ug/ml by FRAP assay

| SMILES | zone of inhibition at 750 µg/mL [1] [mm] | zone of inhibition at 1000 µg/mL [2] [mm] | zone of inhibition at 750 µg/mL [3] [mm] | zone of inhibition at 750 µg/mL [4] [mm] | zone of inhibition at 500 µg/mL [5] [mm] | zone of inhibition at 500 µg/mL [6] [mm] | Activity [7] | zone of inhibition at 750 µg/mL [8] [mm] | zone of inhibition at 1000 µg/mL [9] [mm] | zone of inhibition at 750 µg/mL [10] [mm] | zone of inhibition at 500 µg/mL [11] [mm] | zone of inhibition at 1000 µg/mL [12] [mm] | zone of inhibition at 500 µg/mL [13] [mm] | zone of inhibition at 500 µg/mL [14] [mm] | zone of inhibition at 1000 µg/mL [16] [mm] | zone of inhibition at 1000 µg/mL [17] [mm] | zone of inhibition at 1000 µg/mL [18] [mm] | zone of inhibition at 750 µg/mL [19] [mm] | zone of inhibition at 750 µg/mL [20] [mm] | zone of inhibition at 500 µg/mL [21] [mm] | further results |
| --- | --- | --- | --- | --- | --- | --- | --- | --- | --- | --- | --- | --- | --- | --- | --- | --- | --- | --- | --- | --- | --- |
| Nc1nc(=S)[nH]c2c1C(c1c(-c3ccccc3)[nH]c3ccc(Cl)cc13)C=C(c1ccc(Cl)cc1)O2 (configuration not stated) | 5 | 0 | 10 | 13 | 5 | 11 | Active | 10 | 14 | 11 | 10 | 11 | 9 | 2 | 13 | 11 | 3 | 3 | 4 | 13 | Activity [15]: Active; zone of inhibition at 750 µg/mL [22]: 10 mm; zone of inhibition at 1000 µg/mL [23]: 8 mm; zone of inhibition at 500 µg/mL [24]: 10 mm; zone of inhibition at 500 µg/mL [25]: 5 mm; zone of inhibition at 1000 µg/mL [26]: 11 mm |
| O=c1[nH]cnc2c1C(c1c(-c3ccccc3)[nH]c3ccc(Cl)cc13)C=C(c1ccc(Cl)cc1)O2 (configuration not stated) | 12 | 3 | 9 | 9 | 12 | 6 | Active | 3 | 5 | 5 | 8 | 8 | 3 | 5 | 12 | 8 | 5 | 5 | 4 | 9 | Activity [27]: Active; Activity [15]: Active; zone of inhibition at 750 µg/mL [22]: 8 mm; zone of inhibition at 1000 µg/mL [23]: 12 mm; zone of inhibition at 500 µg/mL [24]: 9 mm; zone of inhibition at 500 µg/mL [25]: 4 mm; zone of inhibition at 1000 µg/mL [26]: 4 mm |
| Cc1ccc2[nH]c(-c3ccccc3)c(C3C=C(c4ccc(Cl)cc4)Oc4[nH]c(=S)nc(N)c43)c2c1 (configuration not stated) | 3 | 9 | 3 | 9 | 5 | 5 | Active | 8 | 3 | 5 | 9 | 9 | 9 | 3 | 11 | 3 | 10 | 3 | 3 | 9 | Activity [28]: Active; zone of inhibition at 750 µg/mL [22]: 9 mm; zone of inhibition at 1000 µg/mL [23]: 5 mm; zone of inhibition at 500 µg/mL [24]: 4 mm; zone of inhibition at 500 µg/mL [25]: 3 mm; zone of inhibition at 1000 µg/mL [26]: 4 mm |
| Cc1ccc(C2=CC(c3c(-c4ccccc4)[nH]c4ccc(Cl)cc34)c3c(nc[nH]c3=O)O2)cc1 (configuration not stated) | 9 | 13 | 3 | 3 | 9 | 8 | Active | 13 | 8 | 8 | 8 | 8 | 12 | 8 | 3 | 3 | 8 | 8 | 6 | 5 | Activity [28]: Active; Activity [29]: Active; zone of inhibition at 750 µg/mL [22]: 8 mm; zone of inhibition at 1000 µg/mL [23]: 9 mm; zone of inhibition at 500 µg/mL [24]: 3 mm; zone of inhibition at 500 µg/mL [25]: 6 mm; zone of inhibition at 1000 µg/mL [26]: 6 mm |
| Cc1ccc(C2=CC(c3c(-c4ccccc4)[nH]c4ccc(Cl)cc34)c3c(nc4oc(=O)c(C#N)c(N)c4c3N)O2)cc1 (configuration not stated) | 8 | 10 | 10 | 3 | 8 | 0 | Active | 10 | 3 | 0 | 2 | 2 | 10 | 3 | 3 | 9 | 3 | 3 | 5 | 5 | Activity [15]: Active; zone of inhibition at 750 µg/mL [22]: 2 mm; zone of inhibition at 1000 µg/mL [23]: 8 mm; zone of inhibition at 500 µg/mL [24]: 12 mm; zone of inhibition at 500 µg/mL [25]: 6 mm; zone of inhibition at 1000 µg/mL [26]: 3 mm |
